Data published in PMC10994559 (PLOS Neglected Tropical Diseases, 2024).
Like-named read-outs stand apart in the source and are kept apart here.

Experiments:
[1] = test system: L. major promastigotes; assay: L. major promastigote viability, resazurin reduction; type: cell-based, Leishmania major; conditions: Leishmania major, read-out: viability, L.major promastigote (25 µM)
From the text: (§1) The infectivity of the parasites was boosted by passaging in Balb/c mice and culturing the infected lymph nodes after six weeks. L. infantum (MHOM / BR / 76 / M4192) parasite was passaged in the same media formulation with 0.5% urine.

[2] = test system: L. infantum promastigotes; assay: L. infantum promastigote viability, resazurin reduction; type: cell-based, Leishmania infantum; conditions: Leishmania infantum, sheet LTC_compound_viability, value ± spread; for viability at 2.5 µM: read-out: viability, L. infantum promastigote (2.5 µM); for viability at 25 µM: read-out: viability, L. infantum promastigote (25 µM)
From the text: as §1

[3] = test system: L. major axenic amastigotes; assay: L. major axenic amastigote viability, resazurin reduction; conditions: Leishmania major, read-out: viability, L.major amastigote (25 µM)
Description: L. major LV561(MHOM/IL/67/LRC-L137 JERICHO II) amastigotes were passaged in Grace insect medium supplemented with NaHCO3, 0.1% amikin and 20% of FCS (pH: 5.4) and kept at 33°C.
Exponential growth phase promastigotes of L. major or L. infantum and axenic amastigotes (L. major) were harvested and seeded in 384 well plates (white, non-transparent, tissue culture treated, flat bottom; Corning) (0.5x10^5 cells per well). Compounds were pre-dispensed into the plate with an Echo 650 acoustic dispenser (Beckman Coulter). After 72h incubation, resazurin was added (1:10 v/v) from a […] stock in PBS, followed by incubation for six hours. Then, fluorescence intensity was measured using a microplate reader (Synergy H1, BioTek) with excitation filter: 550 nm and emission filter: 590 nm. Efficient compounds were selected for the next round of viability assay with 2.5 μM concentrations of the compounds. […] All experiments were performed with AmB as a positive control drug in parallel.
Axenic amastigotes, the relevant form that persists in the infected host, were generated in the lab through established procedures, employing harsh pH (pH 5) and high temperature (33°C) conditions.

[4] = test system: T. brucei brucei BSF; assay: T. brucei BSF viability, resazurin reduction; type: cell-based, Trypanosoma brucei brucei; conditions: Trypanosoma brucei; for viability at 2.5 µM: read-out: viability, T.brucei (2.5 µM); for viability at 25 µM: read-out: viability, T.brucei (25 µM); for EC50: read-out: EC50 T. brucei BSF, dose response, triplicate, ± SD (Table 2) / ± SE (S3 Table)
Description: T. brucei brucei (strain 427 Lister) blood stream form (BSF) parasites were passaged in complete HMI-9 media supplemented with 10% FCS, Pen-Strep (0.1%) and 2-mercaptoethanol (0.014 v/v) and kept in a 37° C CO2 incubator in filter-cap flasks.
(§2) Viability of T. brucei brucei BSF and T. cruzi trypomastigotes was assayed with fluorescence resazurin reduction assay, essentially as described above. […] Next, selected compounds were tested at 2.5 μM concentration, and promising compounds subjected to 18 concentrations dose response analyses. AN3057 and AmB were used as a control drug in T. brucei and T. cruzi, respectively.

[5] = test system: T. cruzi trypomastigotes; assay: T. cruzi viability, resazurin reduction; type: cell-based, Trypanosoma cruzi; conditions: Trypanosoma cruzi; for viability at 2.5 µM: read-out: viability, T.cruzi (2.5 µM); for viability at 25 µM: read-out: viability, T.cruzi (25 µM)
Description: T. cruzi (Y strain) trypomastigotes were passaged in liver infusion broth media supplemented with tryptose, NaCl, Na2HPO4, KCl, glucose, hemin, Pen-Strep (1%), 10% FCS (pH: 7.2) and kept at 28°C.
as §2

[6] = test system: E. histolytica; assay: E. histolytica viability, ATP luminescence (Cell titer glo); type: cell-based, Entamoeba histolytica; conditions: Entamoeba histolytica; for EC50: 48 h, 9 to 16-point dose response; for viability at 2.5 µM: read-out: viability, E.histolytica (2.5 µM); for viability at 25 µM: read-out: viability, E.histolytica (25 µM)
Description: Entamoeba histolytica (strain B2-5) was passaged in TY-1 medium (Trypticase peptone BBL, Yeast extract BBL, glucose, NaCl, K2HPO4, KH2PO4, cysteine, ascorbic acid, ammonium iron citrate, adult bovine serum, Diamond tween 80, penicillin G, amikacin (pH:6.8)) and kept in 37°C incubator in completely filled tubes with closed lid.
Viability of E. histolytica was assayed via a luminescence assay based on ATP quantification in the live cells. Briefly, 2.5x10^4 cell/ml were exposed to 25 μM of compounds in 96 well plates (non-transparent, tissue culture treated, flat bottom; SPL Life Sciences) in triplicate for 48h. Plates were incubated in sealed anaerobic bags (Oxoid AGS) together with an Anaerogen compact bag (Thermo Scientific) and anaerobic indicator (Thermo Scientific) at 37°C. Then, Cell titer glo reagent (Promega) was added to the reaction (1:5) according to manufacturers’ instruction. After 15 min of orbital shaking, followed by 10 min incubation at RT, ATP-bioluminescence was quantified at RT using a Synergy H1 plate reader (Synergy H1, BioTek). Metronidazole was included as control drug in all the assays for E. histolytica. Test compounds indicating significant growth reduction in the primary screen were subjected to potency determination. These secondary screens were essentially carried out as detailed above, but with a 9 to 16-point concentration range of the test compounds spanning 0.01–100 μM.

[7] = Cytotoxicity assay J774, resazurin reduction; type: cell-based, murine; conditions: mouse, J774 macrophage cells; for viability at 72 h, 2.5 µM: read-out: viability, J774 (2.5 µM); for viability at 72 h, 25 µM: read-out: viability, J774 (25 µM)
Description: Mammalian cell lines (J774 and HepG2) were passaged in RPMI media supplemented with MEM, Pen-Strep (1%) and 10% FCS. Cultures were kept at 37°C incubator with 5% CO2 in filter-cap flasks.
Murine macrophage cells (J774) and human hepatocyte carcinoma HepG2 cells were seeded at 0.5x10^5 cell/well in 384 well plates in triplicate, exposed to serial dilution of compounds, dispensed using an Echo 650 acoustic dispenser (Labcyte). After incubation for 72 h at 37°C, 5% CO2, cell viability was determined using fluorescence resazurin reduction assay (λEx: 550 nm; λEm: 590 nm).

[8] = test system: intracellular L. infantum amastigotes; assay: Parasite rescue assay (intramacrophage, J774 infected with L. infantum); type: cell-based, Leishmania infantum; conditions: J774, 25 µM; intracellular amastigote; read-out: viability, intracellular L. major amastigote (25 µM)

SMILES	viability at 25 µM ([1]; 72 h) [%]	viability at 25 µM ([1]; 25 µM) [%]	viability at 2.5 µM [2] [%]	viability at 25 µM [2] [%]	viability at 25 µM [3] [%]	viability at 2.5 µM [4] [%]	viability at 25 µM [4] [%]	EC50 [4] [µM]	viability at 2.5 µM [5] [%]	viability at 25 µM [5] [%]	EC50 [6] [µM]	viability at 2.5 µM [6] [%]	viability at 25 µM [6] [%]	viability at 72 h, 2.5 µM [7] [%]	viability at 72 h, 25 µM [7] [%]	viability at 25 µM [8] [%]
O=C(Cc1ccc2ccccc2c1)NC(Cc1ccccc1)C(O)CN1CCN(Cc2ccccc2)CC1 (centres unmarked) [LTC-6]	66.2 ± 3.33	0.62 ± 0.39	100.6 ± 0.6	0.37 ± 0.06	73.5 ± 1.98	91 ± 5.89	2.92 ± 1.26	5.6 ± 1.7	56.4 ± 4.53	18.4 ± 1.57	4.9 ± 1.8	86.8 ± 20.5	2.71 ± 1.39	106 ± 6.66	2.99 ± 2.56	47.3 ± 9.73
O=C(Cc1cccc(C(F)(F)F)c1)NC(Cc1ccccc1)C(O)CN1CCN(Cc2ccccc2)CC1 (centres unmarked) [LTC-8]	67.5 ± 1.55	0.28 ± 0.16	101 ± 1.24	0.96 ± 0.46	75.1 ± 2.03	98.5 ± 6.21	3.15 ± 1.45	7.3 ± 1.7	59.3 ± 1.4	33.8 ± 0.8	4.4 ± 1.7	60.3 ± 6.76	0.54 ± 0.81	102 ± 8.6	4.16 ± 2.39	67.2 ± 5.73
